From US10280160B2, “Phthalazinone compounds and methods for the treatment of cystic fibrosis” (FLATLEY DISCOVERY LAB, LLC, priority 2013, dated 2019)

biological target: human F508del CFTR (Homo sapiens (Human), UniProt P13569, DEL508-508); test: CFTR-YFP High Throughput Assay (YFP halide flux, FRT cells); type: cell-based; conditions: EMax normalized to the positive control; FRT cells expressing human F508del CFTR and YFP; read-out: % Efficacy
Protocol: Assays for Detecting and Measuring the Effect of Compounds on F508del-CFTR Channels CFTR-YFP Assay-CFTR Corrector Protocol:
This protocol is designed to selectively screen small molecule compounds for F508del CFTR corrector activities in the YFP (yellow fluorescent protein) flux assay. In this protocol, the cells are incubated with testing compounds for 24 hours, washed with PBS, stimulated with forskolin and a standard potentiator, and fluorescence in each plate well is measured kinetically read on a 384-well plate reader, such as the Hamamatsu FDSS-6000.
YFP fluorescence intensity values are acquired at high speed before and after iodide buffer is injected to the assay cells. Iodide enters the cells via active CFTR channels in the plasma membrane, and quenches the YFP fluorescence. The rate of fluorescence quenching is proportionate to the total CFTR activity in the cell membrane. F508del CFTR correctors increase the number of CFTR molecules in the testing cell plasma membrane, and thereby accelerate YFP quenching.
This method was initially developed for bench top plate readers (Galietta, J, Jayaraman, S and Verkman, A S. Cell-based assay for high-throughput quantitative screening of CFTR chloride transport agonists. Am. J. Physiol. Cell Physiol. (2001), 281: C173), and was adapted to the HTS format (Sui J, Cotard S, Andersen J, Zhu P, Staunton J, Lee M, Lin S. Optimization of a Yellow fluorescent protein-based iodide influx high-throughput screening assay for cystic fibrosis transmembrane conductance regulator (CFTR) modulators. Assay Drug Dev Technol. (2010), 8: 656-668).
Fisher Rat Thyroid (FRT) cells stably expressing both human F508del CFTR and a halide-sensitive yellow fluorescent protein (YFP-H148Q/I152L 25,22) (Galietta et al. Am. J. Physiol Cell Physiol 281(5), C1734, 2001) were cultured on plastic surface in Coon's modified Ham's F12 medium supplemented with FBS 10%, L-glutamine 2 mM, penicillin 100 U/ml, and streptomycin 100 μg/ml. G418 (0.75-1.0 mg/ml) and zeocin (3.2 ug/ml) were used for selection of FRT cells expressing F508del CFTR and YFP. For primary screening, FRT cells were plated into 384-well black wall, transparent bottom microtiter plates (Costar; Corning Inc.) at a cell density of 20,000-40,000 per well. Test compound was applied to the cells at varying concentrations ranging from 2 nM-40 μM in either a 2-fold or 3-fold dilution series. Cells were incubated in a cell culture incubator at 37° C. with 5% CO2 for 24-26 h. Assay plates were washed with DPBS media (Thermo, cat # SH30028.02) to remove unbound cells and compound. Stimulation media (25 μL) containing 20 μM Forskolin & 30 μM P3 [6-(Ethyl-phenyl-sulfonyl)-4-oxo-1,4-dihydro-quinoline-3-carboxylic acid 2-methoxy-benzylamide] in Hams F-12 coon's modified media was added to the plate wells and incubated at room temperature for 60-120 min. 25 μL of HEPES-PBS-I buffer (10 mM HEPES, 1 mM MgCl2, 3 mM KCl, 1 mM CaCl2, 150 mM NaI) was then added and fluorescence quench curves (Excitation 500 nm/Emission 540 nm; exposure 136 ms) were immediately recorded on an FDSS-6000 plate reader (Hamamatsu). Quench rates were derived from least squares fitting of the data as described by Sui et al (2010).
CFTR-YFP Assay-CFTR Potentiator Protocol:
This protocol is designed to selectively screen small molecule compounds for F508del CFTR potentiator activities in the YFP (yellow fluorescent protein) flux assay. Such compounds act acutely to stimulate CFTR already expressed on the membrane surface. In this protocol, the cells are incubated at 27° C. for 24 hours to homogeneously boost F508del CFTR expression in the cell membrane (low temperature correction), washed with PBS, treated with test compound, and CFTR activity is stimulated with forskolin for 1-2 hr. Measurement of ion flux is initiated by addition of iodide-containing buffer, and YFP quenching is kinetically recorded using a 384-well plate reader, such as the Hamamatsu FDSS-6000. […]

Chain of human F508del CFTR (P13569 other isoform, or with tags, fused parts or gaps del F508-F508): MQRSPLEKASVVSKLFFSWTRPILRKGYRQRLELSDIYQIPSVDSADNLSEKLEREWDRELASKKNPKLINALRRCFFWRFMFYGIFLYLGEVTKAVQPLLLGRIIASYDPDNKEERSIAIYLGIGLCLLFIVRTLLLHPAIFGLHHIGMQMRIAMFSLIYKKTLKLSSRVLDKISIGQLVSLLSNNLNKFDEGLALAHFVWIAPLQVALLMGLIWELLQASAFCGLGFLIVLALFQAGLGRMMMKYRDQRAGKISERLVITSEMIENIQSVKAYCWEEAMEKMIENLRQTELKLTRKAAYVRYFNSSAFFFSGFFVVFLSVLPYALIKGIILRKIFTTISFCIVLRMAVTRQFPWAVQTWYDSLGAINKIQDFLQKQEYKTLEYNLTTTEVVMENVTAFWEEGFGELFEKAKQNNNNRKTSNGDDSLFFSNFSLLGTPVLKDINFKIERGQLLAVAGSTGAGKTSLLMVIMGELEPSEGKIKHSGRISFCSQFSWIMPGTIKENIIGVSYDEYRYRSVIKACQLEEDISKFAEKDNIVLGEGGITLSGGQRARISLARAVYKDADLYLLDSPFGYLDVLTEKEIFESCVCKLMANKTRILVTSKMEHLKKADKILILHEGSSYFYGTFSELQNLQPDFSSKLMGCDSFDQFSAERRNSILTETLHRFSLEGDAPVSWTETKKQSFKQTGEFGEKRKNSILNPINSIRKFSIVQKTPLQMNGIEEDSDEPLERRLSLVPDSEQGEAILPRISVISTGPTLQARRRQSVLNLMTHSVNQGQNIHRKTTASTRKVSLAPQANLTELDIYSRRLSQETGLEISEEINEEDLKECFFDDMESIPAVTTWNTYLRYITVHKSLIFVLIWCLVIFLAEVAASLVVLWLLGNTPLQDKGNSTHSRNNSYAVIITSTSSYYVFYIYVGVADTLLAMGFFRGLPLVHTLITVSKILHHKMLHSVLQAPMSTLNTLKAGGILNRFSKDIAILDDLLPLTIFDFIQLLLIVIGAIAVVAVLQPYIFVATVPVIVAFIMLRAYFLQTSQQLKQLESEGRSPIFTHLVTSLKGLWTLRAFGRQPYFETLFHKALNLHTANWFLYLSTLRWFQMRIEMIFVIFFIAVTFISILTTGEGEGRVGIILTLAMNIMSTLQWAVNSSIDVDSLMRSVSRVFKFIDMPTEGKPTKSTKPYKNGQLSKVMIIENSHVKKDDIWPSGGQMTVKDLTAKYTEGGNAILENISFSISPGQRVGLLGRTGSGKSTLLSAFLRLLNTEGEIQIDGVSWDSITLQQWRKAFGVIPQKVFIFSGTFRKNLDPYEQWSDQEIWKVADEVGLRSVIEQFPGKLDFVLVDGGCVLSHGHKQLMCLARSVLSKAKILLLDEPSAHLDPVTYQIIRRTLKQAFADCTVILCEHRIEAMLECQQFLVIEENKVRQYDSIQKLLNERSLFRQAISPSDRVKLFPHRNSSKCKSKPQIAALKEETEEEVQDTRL

Emax [%] | Structure (SMILES)
30 to 80 | COc1ccc2c(-c3cccc(F)c3)nn(CC(=O)N(C)c3ccc4nc(C)oc4c3)c(=O)c2c1 [Example 3, 2-(4-(3-fluorophenyl)-7-methoxy-1-oxophthalazin-2(1H)-yl)-N-methyl-N-(2-methylbenzo[d]oxazol-6-yl)acetamide]
> 80 | Cc1nc2ccc(N(C)C(=O)Cn3nc(-c4cccc(Cl)c4)c4ccc(OCC5CC5)cc4c3=O)cc2o1 [Example 24, 2-(4-(3-chlorophenyl)-7-(cyclopropylmethoxy)-1-oxophthalazin-2(1H)-yl)-N-methyl-N-(2-methylbenzo[d]oxazol-6-yl)acetamide]
> 80 | Cc1nc2ccc(N(C)C(=O)Cn3nc(-c4cccc(Cl)c4)c4ccc(O)cc4c3=O)cc2o1 [Example 16, 2-(4-(3-chlorophenyl)-7-hydroxy-1-oxophthalazin-2(1H)-yl)-N-methyl-N-(2-methylbenzo[d]oxazol-6-yl)acetamide]
> 80 | Cc1nc2ccc(N(C)C(=O)Cn3nc(-c4cccc(F)c4)c4ccc(OC5CCOCC5)cc4c3=O)cc2o1 [Example 27, 2-(4-(3-fluorophenyl)-1-oxo-7-((tetrahydro-2H-pyran-4-yl)oxy)phthalazin-2(1H)-yl)-N-methyl-N-(2-methylbenzo[d]oxazol-6-yl)acetamide]
30 to 80 | [2H]C([2H])([2H])N(C(=O)Cn1nc(-c2cccc(Cl)c2)c2ccc(OC(C)C)cc2c1=O)c1ccc2nc(C)oc2c1 [Example 20, 2-(4-(3-chlorophenyl)-7-isopropoxy-1-oxophthalazin-2(1H)-yl)-N-(methyl-d3)-N-(2-methylbenzo[d]oxazol-6-yl)acetamide]
> 80 | COc1ccc2c(-c3cccc(F)c3)nn(CC(=O)N(c3ccc4nc(C)oc4c3)C3CC3)c(=O)c2c1 [Example 12, N-cyclopropyl-2-(4-(3-fluorophenyl)-7-methoxy-1-oxophthalazin-2(1H)-yl)-N-(2-methylbenzo[d]oxazol-6-yl)acetamide]
> 80 | Cc1nc2ccc(N(C)C(=O)Cn3nc(-c4cccc(Cl)c4)c4ccc(OC(C)C)cc4c3=O)cc2o1 [Example 25, 2-(4-(3-chlorophenyl)-7-isopropoxy-1-oxophthalazin-2(1H)-yl)-N-methyl-N-(2-methylbenzo[d]oxazol-6-yl)acetamide]
> 80 | Cc1nc2ccc(N(C)C(=O)Cn3nc(-c4cccc(F)c4)c4ccc(O)cc4c3=O)cc2o1 [Example 13, 2-(4-(3-fluorophenyl)-7-hydroxy-1-oxophthalazin-2(1H)-yl)-N-methyl-N-(2-methylbenzo[d]oxazol-6-yl)acetamide]
> 80 | CCN(C(=O)Cn1nc(-c2cccc(Cl)c2)c2ccc(OC)cc2c1=O)c1ccc2nc(C)oc2c1 [Example 9, 2-(4-(3-chlorophenyl)-7-methoxy-1-oxophthalazin-2(1H)-yl)-N-ethyl-N-(2-methylbenzoyl[d]oxazol-6-yl)acetamide]
> 80 | CCOc1ccc2c(-c3cccc(Cl)c3)nn(CC(=O)N(c3ccc4nc(C)oc4c3)C3CC3)c(=O)c2c1 [Example 18, 2-(4-(3-chlorophenyl)-7-ethoxy-1-oxophthalazin-2(1H)-yl)-N-cyclopropyl-N-(2-methylbenzo[d]oxazol-6-yl)acetamide]
30 to 80 | Cc1nc2ccc(N(C)C(=O)Cn3nc(-c4cccc(F)c4)c4ccccc4c3=O)cc2o1 [Example 2, 2-(4-(3-fluorophenyl)-1-oxophthalazin-2(1H)-yl)-N-methyl-N-(2-methylbenzo[d]oxazol-6-yl)acetamide]
> 80 | COc1ccc2c(-c3cccc(Cl)c3)nn(CC(=O)N(C)c3ccc4nc(C)oc4c3)c(=O)c2c1 [Example 4, 2-(4-(3-chlorophenyl)-7-methoxy-1-oxophthalazin-2(1H)-yl)-N-methyl-N-(2-methylbenzo[d]oxazol-6-yl)acetamide]
> 80 | Cc1nc2ccc(N(C)C(=O)Cn3nc(-c4cccc(Cl)c4)c4ccc(OC5CCOCC5)cc4c3=O)cc2o1 [Example 29, 2-(4-(3-chlorophenyl)-1-oxo-7-((tetrahydro-2H-pyran-4-yl)oxy)phthalazin-2(1H)-yl)-N-methyl-N-(2-methylbenzo[d]oxazol-6-yl)acetamide]
> 80 | Cc1nc2ccc(N(C(=O)Cn3nc(-c4cccc(Cl)c4)c4ccc(O)cc4c3=O)C3CC3)cc2o1 [Example 15, 2-(4-(3-chlorophenyl)-7-hydroxy-1-oxophthalazin-2(1H)-yl)-N-cyclopropyl-N-(2-methylbenzo[d]oxazol-6-yl)acetamide]
> 80 | CCOc1ccc2c(-c3cccc(Cl)c3)nn(CC(=O)N(C)c3ccc4nc(C)oc4c3)c(=O)c2c1 [Example 19, 2-(4-(3-chlorophenyl)-7-ethoxy-1-oxophthalazin-2(1H)-yl)-N-methyl-N-(2-methylbenzo[d]oxazol-6-yl)acetamide]
> 80 | [2H]C([2H])([2H])N(C(=O)Cn1nc(-c2cccc(F)c2)c2ccc(OCC)cc2c1=O)c1ccc2nc(C)oc2c1 [Example 22, 2-(7-ethoxy-4-(3-fluorophenyl)-1-oxophthalazin-2(1H)-yl)-N-(methyl-d3)-N-(2-methylbenzo[d]oxazol-6-yl)acetamide]
> 80 | COc1cc2c(=O)n(CC(=O)N(C)c3ccc4nc(C)oc4c3)nc(-c3cccc(Cl)c3)c2cc1Cl [Example 11, 2-(6-chloro-4-(3-chlorophenyl)-7-methoxy-1-oxophthalazin-2(1H)-yl)-N-methyl-(2-methylbenzo[d]oxazol-6-yl)acetamide]
> 80 | [2H]C([2H])(C)N(C(=O)Cn1nc(-c2cccc(Cl)c2)c2ccc(OC)cc2c1=O)c1ccc2nc(C)oc2c1 [Example 7, 2-(4-(3-chlorophenyl)-7-methoxy-1-oxophthalazin-2(1H)-yl)-N-(ethyl-1,1-d2)-N-(2-methylbenzo[d]oxazol-6-yl)acetamide]
30 to 80 | [2H]C([2H])([2H])N(C(=O)Cn1nc(-c2cccc(Cl)c2)c2ccc(OCC3CC3)cc2c1=O)c1ccc2nc(C)oc2c1 [Example 23, 2-(4-(3-chlorophenyl)-7-(cyclopropylmethoxy)-1-oxophthalazin-2(1H)-yl)-N-(methyl-d3)-N-(2-methylbenzo[d]oxazol-6-yl)acetamide]
> 80 | CCOc1ccc2c(-c3cccc(F)c3)nn(CC(=O)N(c3ccc4nc(C)oc4c3)C3CC3)c(=O)c2c1 [Example 21, N-cyclopropyl-2-(7-ethoxy-4-(3-fluorophenyl)-1-oxophthalazin-2(1H)-yl)-N-(2-methylbenzo[d]oxazol-6-yl)acetamide]
30 to 80 | COc1cc2c(=O)n(CC(=O)N(C)c3ccc4nc(C)oc4c3)nc(-c3cccc(F)c3)c2cc1Cl [Example 10, 2-(6-chloro-4-(3-fluorophenyl)-7-methoxy-1-oxophthalazin-2(1H)-yl)-N-methyl-N-(2-methylbenzo[d]oxazol-6-yl)acetamide]
> 80 | Cc1nc2ccc(N(C)C(=O)Cn3nc(-c4cccc(F)c4)c4ccc(OC5CCCCC5)cc4c3=O)cc2o1 [Example 28, 2-(7-(cyclohexyloxy)-4-(3-fluorophenyl)-1-oxophthalazin-2(1H)-yl)-N-methyl-N-(2-methylbenzo[d]oxazol-6-yl)acetamide]
> 80 | Cc1nc2ccc(N(C)C(=O)Cn3nc(-c4cccc(Cl)c4)c4ccccc4c3=O)cc2o1 [Example 1, 2-(4-(3-chlorophenyl)-1-oxophthalazin-2(1H)-yl)-N-methyl-N-(2-methylbenzo[d]oxazol-6-yl)acetamide]
